Results as given in PubChem BioAssay (NCI).
“And” between values parts separate entries of the source, which are not always exact repeats. Equal entries are not always repeated.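 Values below derive from 48-hour exposures of cells grown in 96-well plates, with endpoints linearly interpolated between the two concentrations bracketing the appropriate inhibition level. GI50 is the concentration that inhibits growth by half. TGI: concentration producing complete growth inhibition.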

Key:
Assay in all cases: NCI-60 cell line screen, 48 h
SF-539 CNS = tested on: SF-539 CNS
HT29 colon = tested on: HT29 colon
HOP-92 NSCLC = tested on: HOP-92 NSCLC
DLD-1 colon = tested on: DLD-1 colon
HCT-15 colon = tested on: HCT-15 colon
CAKI-1 renal = tested on: CAKI-1 renal
ACHN renal = tested on: ACHN renal
COLO 205 colon = tested on: COLO 205 colon
HOP-62 NSCLC = tested on: HOP-62 NSCLC
786-0 renal = tested on: 786-0 renal
UO-31 renal = tested on: UO-31 renal
SN12C renal = tested on: SN12C renal
SF-268 CNS = tested on: SF-268 CNS
SK-OV-3 ovarian = tested on: SK-OV-3 ovarian
LOX IMVI melanoma = tested on: LOX IMVI melanoma
NCI-H522 lung = tested on: NCI-H522 lung
MOLT-4 leukemia = tested on: MOLT-4 leukemia
A549 NSCLC = tested on: A549 NSCLC
M14 melanoma = tested on: M14 melanoma
MDA-MB-231 breast = tested on: MDA-MB-231 breast
A498 renal = tested on: A498 renal
KM20L2 colon = tested on: KM20L2 colon
K-562 leukemia = tested on: K-562 leukemia
RXF 393 renal = tested on: RXF 393 renal
LXFL 529 NSCLC = tested on: LXFL 529 NSCLC
OVCAR-5 ovarian = tested on: OVCAR-5 ovarian
XF 498 CNS = tested on: XF 498 CNS
NCI-H23 lung = tested on: NCI-H23 lung
M19-MEL melanoma = tested on: M19-MEL melanoma
CCRF-CEM leukemia = tested on: CCRF-CEM leukemia
DU-145 prostate = tested on: DU-145 prostate
NCI-H460 lung = tested on: NCI-H460 lung
SNB-75 CNS = tested on: SNB-75 CNS
BT-549 breast = tested on: BT-549 breast
MDA-MB-435 = tested on: MDA-MB-435
UACC-257 melanoma = tested on: UACC-257 melanoma
SK-MEL-5 melanoma = tested on: SK-MEL-5 melanoma
MDA-N = tested on: MDA-N
KM12 colon = tested on: KM12 colon
OVCAR-4 ovarian = tested on: OVCAR-4 ovarian
HCT-116 colon = tested on: HCT-116 colon
RPMI-8226 leukemia = tested on: RPMI-8226 leukemia
SW-620 colon = tested on: SW-620 colon
MCF7 breast = tested on: MCF7 breast
DMS 114 small cell lung = tested on: DMS 114 small cell lung
SF-295 CNS = tested on: SF-295 CNS
SR leukemia = tested on: SR leukemia
U251 CNS = tested on: U251 CNS
EKVX NSCLC = tested on: EKVX NSCLC
SK-MEL-2 melanoma = tested on: SK-MEL-2 melanoma
MALME-3M melanoma = tested on: MALME-3M melanoma
OVCAR-3 ovarian = tested on: OVCAR-3 ovarian
SK-MEL-28 melanoma = tested on: SK-MEL-28 melanoma
HOP-18 NSCLC = tested on: HOP-18 NSCLC
OVCAR-8 ovarian = tested on: OVCAR-8 ovarian
HCC-2998 colon = tested on: HCC-2998 colon
T-47D breast = tested on: T-47D breast
SNB-78 CNS = tested on: SNB-78 CNS
IGROV1 ovarian = tested on: IGROV1 ovarian
RXF-631 renal = tested on: RXF-631 renal
NCI/ADR-RES ovarian = tested on: NCI/ADR-RES ovarian
TK-10 renal = tested on: TK-10 renal
PC-3 prostate = tested on: PC-3 prostate
SNB-19 CNS = tested on: SNB-19 CNS
UACC-62 melanoma = tested on: UACC-62 melanoma
HL-60(TB) leukemia = tested on: HL-60(TB) leukemia
NCI-H226 lung = tested on: NCI-H226 lung
HS 578T breast = tested on: HS 578T breast
DMS 273 small cell lung = tested on: DMS 273 small cell lung

Compound: NCCSSCCN
- TGI (SF-539 CNS): > 100 µM
- TGI (HT29 colon): > 100 µM
- TGI (HOP-92 NSCLC): > 100 µM
- TGI (DLD-1 colon): > 100 µM
- TGI (HCT-15 colon): > 100 µM
- TGI (CAKI-1 renal): > 100 µM
- TGI (ACHN renal): > 100 µM
- TGI (COLO 205 colon): > 100 µM
- TGI (HOP-62 NSCLC): > 100 µM
- TGI (786-0 renal): > 100 µM
- TGI (UO-31 renal): > 100 µM
- TGI (SN12C renal): > 100 µM
- TGI (SF-268 CNS): > 100 µM
- TGI (SK-OV-3 ovarian): > 100 µM
- TGI (LOX IMVI melanoma): > 100 µM
- TGI (NCI-H522 lung): > 100 µM
- TGI (MOLT-4 leukemia): > 100 µM
- TGI (A549 NSCLC): > 100 µM
- TGI (M14 melanoma): > 100 µM
- TGI (MDA-MB-231 breast): > 100 µM
- TGI (A498 renal): > 100 µM
- TGI (KM20L2 colon): > 100 µM
- TGI (K-562 leukemia): > 100 µM
- TGI (RXF 393 renal): > 100 µM
- TGI (LXFL 529 NSCLC): > 100 µM
- TGI (OVCAR-5 ovarian): > 100 µM
- TGI (XF 498 CNS): > 100 µM
- TGI (NCI-H23 lung): > 100 µM
- TGI (M19-MEL melanoma): > 100 µM
- TGI (CCRF-CEM leukemia): > 100 µM
- TGI (DU-145 prostate): > 100 µM
- TGI (NCI-H460 lung): > 100 µM
- TGI (SNB-75 CNS): > 100 µM
- TGI (BT-549 breast): > 100 µM
- TGI (MDA-MB-435): > 100 µM
- GI50 (UACC-257 melanoma): > 100 µM and 18.2 µM
- TGI (UACC-257 melanoma): > 100 µM
- TGI (SK-MEL-5 melanoma): > 100 µM
- TGI (MDA-N): > 100 µM
- TGI (KM12 colon): > 100 µM
- TGI (OVCAR-4 ovarian): > 100 µM
- TGI (HCT-116 colon): > 100 µM
- TGI (RPMI-8226 leukemia): > 100 µM
- TGI (SW-620 colon): > 100 µM
- TGI (MCF7 breast): > 100 µM
- TGI (DMS 114 small cell lung): > 100 µM
- TGI (SF-295 CNS): > 100 µM
- TGI (SR leukemia): > 100 µM
- TGI (U251 CNS): > 100 µM
- TGI (EKVX NSCLC): > 100 µM
- TGI (SK-MEL-2 melanoma): > 100 µM
- TGI (MALME-3M melanoma): > 100 µM
- TGI (OVCAR-3 ovarian): > 100 µM
- TGI (SK-MEL-28 melanoma): > 100 µM
- TGI (HOP-18 NSCLC): > 100 µM
- TGI (OVCAR-8 ovarian): > 100 µM
- TGI (HCC-2998 colon): > 100 µM
- TGI (T-47D breast): > 100 µM
- TGI (SNB-78 CNS): > 100 µM
- TGI (IGROV1 ovarian): > 100 µM
- TGI (RXF-631 renal): > 100 µM
- TGI (NCI/ADR-RES ovarian): > 100 µM
- TGI (TK-10 renal): > 100 µM
- TGI (PC-3 prostate): > 100 µM
- TGI (SNB-19 CNS): > 100 µM
- TGI (UACC-62 melanoma): > 100 µM
- TGI (HL-60(TB) leukemia): > 100 µM
- TGI (NCI-H226 lung): > 100 µM
- TGI (HS 578T breast): > 100 µM
- TGI (DMS 273 small cell lung): > 100 µM
